In one experiment the test system is fibroblasts. In words: Collagen in fibroblast supernatant by ELISA, co-incubation with macrophages. It is filed as cell-based, mouse. The conditions noted are these: fibroblasts co-incubated with macrophages. As to the method: (§1) HaCat was co-incubated with THP-1 derived macrophages, and mouse fibroblasts were co-incubated with mouse macrophages BMDMs. HaCat (1×10^5 cells/well) or mouse fibroblasts (1×10^5 cells/well) were inoculated into a 24-well plate (lower chamber) one day in advance. After adherence, corresponding macrophages (1×10^5 cells/well, 100 μL) and different concentrations of Ot-WHP (25, 50, 100 μg/mL) or Vehicle (PBS, control) were added to the co-incubation chamber (upper chamber). After HaCat was co-incubated with THP-1-derived macrophages for 24 h, and the fibroblasts were co-incubated with mouse macrophages BMDMs for 72 h, the co-incubated upper chamber was discarded, and the cell activity in the lower chamber was detected by CCK-8.
(§2) The method was the same as that in Example 8. The fibroblasts treated in Example 8 were lysed with RIPA cell lysis solution. The protein was extracted, and the expression of α-SMA was detected by Western blot. A higher expression level of α-SMA means a higher transformation of fibroblasts into […]. The supernatant of the fibroblasts treated in Example 8 was collected, and the production of collagen in the supernatant was quantitatively detected with an ELISA kit.
In general terms: ELISA stands for enzyme-linked immunosorbent assay.

The test system of the next experiment is mouse fibroblasts. Briefly: Fibroblast proliferation, co-incubation with mouse macrophages BMDMs (CCK-8). The following applies: mouse fibroblasts with BMDMs, 25, 50, 100 μg/mL, 72 h. Format: cell-based. As to the method: as §1
For a further experiment, the system named is mouse neutrophils. In words: Transwell migration, direct (peptide in lower chamber). It is filed as cell-based. The conditions noted are these: 25-100 μg/mL, 8 h, no macrophages in lower chamber. As to the method: (§3) To clarify how Ot-WHP chemoattracts neutrophils and macrophages to the wound area, the prepared mouse neutrophils or bone marrow-derived macrophages (BMDMs) were resuspended in RPMI 1640 medium containing 2% FBS at a cell density of 7×10^6 cells/mL. 100 μL was pipetted to a Transwell chamber with a pore size of 3.0 μm (upper chamber, 24-well plate). Then 500 μL of Ot-WHP (25, 50, 100 μg/mL, dissolved in RPMI 1640 medium containing 2% FBS) or the culture medium (control) was pipetted to the lower chamber, and then cultured in a cell incubator at 37° C. for 8 h. The cells in the lower chamber were collected and counted with a hemocytometer.

Experiment [1] relates to bone marrow-derived macrophages (BMDMs). The experiment is described as above. It is filed as cell-based, mouse. The conditions noted are these: 25-100 μg/mL, 8 h, no macrophages in lower chamber. On the procedure: as §3
For experiment [2], the system named is α-SMA in fibroblasts. Briefly: α-SMA expression in fibroblasts by Western blot, co-incubation with macrophages. It is filed as cell-based, mouse. The following applies: fibroblasts co-incubated with macrophages. On the procedure:
as §1, §2
(In general: A western blot detects proteins with antibodies after separation by electrophoresis.)

Experiment [3] relates to bone marrow-derived macrophages (BMDMs). Briefly: Transwell migration in co-incubation system with BMDMs in lower chamber. The conditions noted are these: 25-100 μg/mL, 8 h. It is filed as cell-based, mouse. On the procedure:
In a co-incubation system, mouse bone marrow-derived macrophages (BMDMs, 4×10^6 cells/mL, 500 μL) resuspended in RPMI 1640 medium containing 2% FBS were plated in the lower chamber (24-well plate) of the co-incubation chamber. After adherence, the prepared mouse neutrophils (7×10^6 cells/mL, 100 μL) or bone marrow-derived macrophages (BMDMs, 7×10^6 cells/mL, 100 μL) were added to the Transwell chamber with a pore size of 3.0 μm (upper chamber, 24-well plate). Then 500 μL of Ot-WHP (25, 50, 100 μg/mL, dissolved in RPMI 1640 medium containing 2% FBS) or the culture medium (control) was added to the lower chamber, and then cultured in a cell incubator at 37° C. for 8 h. The cells in the upper chamber were collected and counted with a hemocytometer. The reduced cells in the upper chamber are the migrated cells

Another experiment relates to neutrophils. Briefly: Immunohistochemical count of neutrophils (anti-Ly6G) recruited to the wound. It is filed as in vivo, mice. The following applies: natural Ot-WHP dripped to wound; days 0.5 and 1 after operation; vs negative control. As to the method:
The mice were treated according to the method in Example 3. The drugs in the negative control group and the natural Ot-WHP group were dripped to wounds of corresponding mice. At specified time point (0.5, 1, 2, 3 days) after the operation, the mice were sacrificed. A biopsy tissue containing the wound center was taken, immobilized with 10% formalin, then dehydrated by ethanol, washed with xylene, and finally embedded in paraffin. The paraffin block was cut into 5 μm slices, deparaffinized, and hydrated, and antigen retrieval was performed for immunohistochemical analysis. The slice was blocked with 5% BSA for non-specific sites, incubated with the primary antibody (anti-Ly6G for neutrophils, and anti-F4/80 for macrophages) at 4° C., and immunostained with horseradish peroxidase and DBA. The infiltration by neutrophils and macrophages was measured by statistically counting the immunostained anti-Ly6G and anti-F4/80 cells.
FIGS. 4A1-A4 show the immunohistochemical results of neutrophils recruited on days 0.5 and 1 after operation of mice in different groups. FIGS. 4C1-C4 show the immunohistochemical results of macrophages recruited on days 2 and 3 after operation of mice in different groups. FIGS. 4B1-B2 show the statistical results of neutrophils recruited on days 0.5 and 1 after operation of mice in different groups. […]

In experiment [4] the test system is α-SMA in fibroblasts. In words: α-SMA expression in fibroblasts by Western blot, direct. It is filed as cell-based, mouse. The conditions noted are these: fibroblasts alone, treated as in Example 8. On the procedure: Keratinocytes HaCat and mouse fibroblasts (5×10^3 cells/well, 100 μL/well) were inoculated into a 96-well plate, and incubated with different concentrations of Ot-WHP (25, 50, and 100 μg/mL). PBS was used as a control. After HaCat was incubated with Ot-WHP for 24 h, and the fibroblasts were incubated with Ot-WHP for 72 h, 10 μl of Cell Counting Kit-8 (CCK-8) solution was added to each well, and incubated for another 2-4 h at 37° C. The absorbency at 450 nm was detected on a microplate reader.
as §2

In the next experiment the test system is skin wounds of mice. Briefly: Chemokine and cytokine production in skin wound tissue homogenate. It is filed as in vivo. The following applies: days 0, 0.5, 1, 2, 4, 6, vs PBS. As to the method: Then whether Ot-WHP can induce the production of chemokines and cytokines in the skin wounds of mice was tested. At specified time points (days 0, 0.5, 1, 2, 4, and 6), the wound tissue of the mice was removed and homogenized with 0.1 M PBS (containing 1 mM PMSF, 1 mL/g tissue) in a glass homogenizer. After the homogenization, the homogenate was centrifuged at 12000×g and 4° C. for 30 min. The supernatant was collected, and the chemokines (CXCL1 and CCL2) and cytokines (including TNF-α and TGF-β1) were determined.

On to “Ot-WHP: immunomodulating peptide of 24 amino acids from concave-eared torrent frog skin, sequence ATAWDLGPHGIRPLRPIRIRPLCG (SEQ ID NO:1); natural (purified) or chemically synthesized (Ot-WHP Peptide; listed as Odorrana tormota)”, for which the “collagen production by fibroblasts with coexisting macrophages” value in the experiment with fibroblasts is “promote the collagen production by fibroblasts”. Also, in the experiment with mouse fibroblasts, the “proliferation of fibroblasts when macrophages coexist” value is on record as “can promote the proliferation”. Also, the “migration of neutrophils, direct” value in the experiment on mouse neutrophils is given as “does not directly cause the migration”. In experiment [1], the “migration of macrophages, direct” value is on record as “does not directly cause the migration”. Further, the “expression of α-SMA by fibroblasts (transformation into fibrocytes) with coexisting macrophages” value in the experiment on α-SMA in fibroblasts [2] is “promote the expression of α-SMA by fibroblast”. The “migration of macrophages when macrophages coexist” value in [3] is listed as “significantly causes the migration”. The “migration of neutrophils to the wound” value in the experiment on neutrophils was “promote the migration of neutrophils and macrophages to the wound”. For the same substance, in the experiment on α-SMA in fibroblasts [4], the “expression of α-SMA in fibroblasts (transformation into fibrocytes), direct” value is listed as “no direct effect on the expression of α-SMA in fibroblasts”. For the same substance, in the experiment with skin wounds of mice, the “CCL2 production in skin wounds” value is recorded as “effectively induce the production”, the “CXCL1 production in skin wounds” value is given as “effectively induce the production”, the “TGF-β1 production in skin wounds” value is reported as “effectively induce the production” and the “TNF-α production in skin wounds” value is given as “effectively induce the production”.

The values are drawn from US11884706B2, “Immunomodulating peptide derived from concave-eared torrent frog and use thereof” (priority 2019, dated 2024).
